{"source": "patent US20130202686A1", "about": "(priority 2010, published 2013)", "key": {"[1]": {"assay": "Donepezil Liposome Drug Dynamics 2 (plasma concentration of donepezil hydrochloride)", "conditions": "rat, SC 5 mg/kg", "procedure": "(Em) of 385 nm was quantified by high performance liquid chromatography using a fluorophotometer.\nFurthermore, for comparison, donepezil used alone was administered subcutaneously into a back part of a rat in a dose of 5 mg/kg. For the donepezil used alone, blood was sampled from a tail vein after lapses of 0.5, 1, 5, 10, 30, 120, 480, 1440, and 2880 minutes from the administration. For the liposome compositions, on the other hand, blood was sampled from a tail vein after lapses of 1, 3, 4, 8, 24, 48, 72, 96, 120, 144, 168, 192, 216, 264, 288, 312, and 336 hours from the administration."}, "[2]": {"conditions": "rat, in vivo, sc, 5 mg/kg, 4 h", "procedure": "For the bupivacaine hydrochloride liposome prepared in Preparation Example 12 and bupivacaine hydrochloride used alone, a drug dynamics test was conducted. Subcutaneous administration into a back part of a rat was conducted in a dose, in terms of the amount of bupivacaine hydrochloride, as set forth in Table 7. After lapses of 1, 24, 72, 120, and 168 hours from the administration of the bupivacaine hydrochloride liposome composition, and after lapses of 0.5, 4, and 24 hours from the administration of the bupivacaine hydrochloride used alone, back region subcutaneous tissue in the administration site was sampled and subjected to a homogenizing treatment. Subsequently, the homogenized solution was treated, the resultant sample solution was subjected to high performance liquid chromatography determination (UV-visible absorptiometer; measurement wavelength 210 nm), and the concentration of bupivacaine hydrochloride remaining in the back region subcutaneous tissue in the administration site was determined. The retention rate of bupivacaine hydrochloride (used alone) in the administration site was lowered to below 1% in four hours after the administration. […] On the other hand, the bupivacaine hydrochloride liposome gave a profile of sustained release from the administration site, and about 35% of bupivacaine hydrochloride remained on the seventh day from the administration."}}, "note": "Structures can show the parent of a compound that is named as a salt.", "data": [{"compound": "COc1cc2c(cc1OC)C(=O)C(CC1CCN(Cc3ccccc3)CC1)C2", "note": "(stereo not drawn) [donepezil hydrochloride, Donepezil hydrochloride]", "values": [{"measurement": "concentration in blood after 48 hours", "setting": "[1]", "value": "below the detection limit"}, {"measurement": "time of maximum concentration in blood", "setting": "[1]", "value": 0.5, "unit": "h"}]}, {"compound": "CCCCN1CCCCC1C(=O)Nc1c(C)cccc1C", "note": "(stereo not drawn) [bupivacaine hydrochloride, Bupivacaine hydrochloride]", "values": [{"measurement": "retention rate of bupivacaine hydrochloride in the administration site", "setting": "[2]", "value": "below 1%"}]}]}
